Publication PMC5922347, “Application of polymersomes engineered to target p32 protein for detection of small breast tumors in mice” (Oncotarget, 2018)
Several values for one entry are separate records, joined by “and”; a condition that tells them apart may be missing. Identical values can stand only once.

Columns and labels:
NRP-1 [1] = target: T1, NRP-1 (Homo sapiens, UniProt O14786); conditions: unless proteolytically processed by uPA; cited from earlier work
[2] = DLS size and polydispersity of polymersomes; assay type: physicochemical; conditions: 3 independent measurements
Method: (§1) DLS and Z-potential measurements (Zetasizer Nano ZS, Malvern Instruments, USA) were used to assess the average size, polydispersity, and surface charge of polymersome preparations. The size was measured at a concentration of 1 mg polymer/mL in PBS (10 mM of phosphate and 137 mM of NaCl). The z-potential was measured at 0.2 mg of polymer/mL in NaCl 10 mM). TEM was used to assess the size and morphology of assembled vesicles. Briefly, polymersomes were deposited from a water solution onto copper grids at 1mg/mL, stained with 0.75% phosphotungstic acid (pH 7), air-dried, and imaged by TEM (Tecnai 10, Philips, Netherlands). The number of polymersomes in the suspension was measured using the ZetaWiew instrument (Particle Metrix GmbH, Germany).

[3] = Z-potential measurement of polymersomes; assay type: physicochemical; conditions: 0.2 mg polymer/mL in NaCl 10 mM; 3 independent measurements
Method: as §1

[4] = test system: orthotopic 4T1 breast tumors; experiment: Ex vivo biodistribution by gamma counter in 4T1 tumor mice; set-up: species or system Balb/c mice; conditions: for Increase in tumor accumulation by LinTT1 functionalization: versus untargeted polymersomes, 48 h, % ID/g
Method: (§2) For tumor induction, 1 million 4T1 cells in 50μL of PBS were orthotopically implanted in the mammary gland of Balb/c mice (Charles River Laboratories, Spain). After 3 days, when the tumor volume had reached ∼18 mm^3, the mice were injected in tail vein with 3.7-7.4MBq of radiolabeled polymersomes (1mg polymer, 100 μL, N=5 mice) and subjected to PET-CT scans. During the scan acquisitions the mice were kept anesthetized with 1.5−2% isofluorane blended with O2. The PET-CT scans were performed at 10 min, 2, 6, 12, 24, and 48 h using the Argus PET-CT scanner (Sedecal, Molecular Imaging, Spain). First, PET scans were acquired using the following acquisition protocol: whole body emission scan, 2 beds, 10 min of total acquisition time for the scans at 10 min, 2, 6, 12, and 24 h post-injection and 20 min for the 48 h time point. The acquisition method was static, using 400-700KeV energetic window, FBP reconstruction algorithm, with correction for scatter coincidences. For the CT scans the used current was 140μA, 40kV of voltage, rotation of 360 degrees, 4 shoots, 1 bed, acquisition time of 6 min, and a reconstruction binning of 2. After 48 h of radiolabeled polymersome injection the mice were sacrificed and the tumor, blood, and organs were excised and further used for biodistribution studies. The PET-CT images were processed with the Medical Image Data Examiner AMIDE software. The CT and PET images were overlaid, the tumor volume was manually extracted from the CT scans and the same ROI was applied in the PET images, averaged, and expressed as percentage of injected dose per cubic centimeter of tissue (ID/cc). For the rendered 3D PET-CT images, PMOD image analysis software (PMOD Technologies Ltd, Zürich, Switzerland) was used. A 3D Gauss Filter of 1.5x1.5x1.5mm was applied to the PET image in order to increase the signal to noise ratio for 3D visualization.
(§3) For biodistribution studies, the tumor, blood, and organs were weighed and the radioactivity was measured using the automatic gamma counter. A standard curve was generated using ^124I to determine the relationship between cpm and Bq. The biodistribution was expressed as percentage of injected dose per gram of tissue (ID/g). To determine the elimination rate of polymersomes, the radioactive signal in the whole mouse body was measured from the PET images at 10 min, 2, 6, 12, 24, and 48 h post-injection and normalized by the signal at 10 min post-injection. The elimination rate was expressed as signal in mouse x 100 divided by the signal at time zero.

[5] = test system: orthotopic 4T1 breast tumors; experiment: In vivo PET-CT imaging of radiolabeled polymersomes in 4T1 tumor mice; set-up: species or system Balb/c mice
Method: as §2

[6] = test system: human recombinant p32 protein; experiment: Binding of radiolabeled polymersomes to p32-coated magnetic beads; conditions: p32-coated Ni-NTA magnetic beads, 1 h, room temperature, 1% BSA, gamma counter, N=3
Method: Recombinant hexahistidine–tagged p32 was bacterially expressed and purified as previously described. For protein binding assays, Ni-NTA magnetic agarose beads (Qiagen, Germany) in binding buffer (50 mM Tris pH 7.4, 150 mM NaCl, 5mM imidazole) were coated with p32 protein at 15 μg of protein/10μL beads. Radiolabeled polymersomes were incubated with the p32-coated beads in binding buffer containing 1% BSA at room temperature for 1 h. The magnetic beads were washed with binding buffer and resuspended in a final volume of 1mL of binding buffer. The radioactivity of each sample was quantified by automatic gamma counter (2470 Wizard 2, Perkin Elmer).

NRP-1 [7] = target: T1, NRP-1; experiment: Binding of radiolabeled polymersomes to NRP1-coated magnetic beads; conditions: 1 h incubation, gamma counter, N=3
[8] = Elimination rate of 124I from whole-body PET signal; set-up: species or system Balb/c mice; conditions: mouse, in vivo
Method: as §3

[9] = 48 h after i.v. injection, gamma counter

T1 sequence (O14786 22-923): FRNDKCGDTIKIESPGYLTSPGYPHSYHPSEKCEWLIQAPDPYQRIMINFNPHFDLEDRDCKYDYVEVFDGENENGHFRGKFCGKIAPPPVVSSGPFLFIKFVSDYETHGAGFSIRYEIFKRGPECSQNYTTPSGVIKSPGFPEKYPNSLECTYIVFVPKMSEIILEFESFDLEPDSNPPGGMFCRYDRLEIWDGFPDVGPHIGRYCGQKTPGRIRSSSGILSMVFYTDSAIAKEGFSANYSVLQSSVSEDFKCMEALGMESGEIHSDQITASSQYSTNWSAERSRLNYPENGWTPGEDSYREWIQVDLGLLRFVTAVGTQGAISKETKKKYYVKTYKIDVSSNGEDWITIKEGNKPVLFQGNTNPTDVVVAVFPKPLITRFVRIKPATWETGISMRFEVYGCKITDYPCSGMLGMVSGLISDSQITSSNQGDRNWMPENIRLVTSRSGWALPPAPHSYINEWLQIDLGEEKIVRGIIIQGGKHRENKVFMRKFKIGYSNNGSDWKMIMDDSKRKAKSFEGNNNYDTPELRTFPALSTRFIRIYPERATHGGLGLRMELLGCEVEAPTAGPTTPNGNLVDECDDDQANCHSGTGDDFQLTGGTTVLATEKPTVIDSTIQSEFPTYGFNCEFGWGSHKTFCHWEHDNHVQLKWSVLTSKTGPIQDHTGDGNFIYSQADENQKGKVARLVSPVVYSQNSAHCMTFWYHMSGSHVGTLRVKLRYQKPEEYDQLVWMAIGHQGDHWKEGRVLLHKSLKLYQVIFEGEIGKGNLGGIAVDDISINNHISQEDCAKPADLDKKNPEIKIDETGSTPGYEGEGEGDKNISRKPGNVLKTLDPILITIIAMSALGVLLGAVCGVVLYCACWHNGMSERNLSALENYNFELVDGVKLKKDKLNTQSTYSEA

Substance: AKRGARSTA [LinTT1]
- Binding of the peptide to NRP-1 (NRP-1 [1]): does not bind

Substance: Cys-Tyr-Ahx-LinTT1 [LinTT1-Tyr-PS, PEG-PCL polymersomes functionalized with Cys-Tyr-Ahx-LinTT1 peptide]
- Pdi ([2]; 1 mg polymer/mL in PBS): 0.15
- Size (hydrodynamic diameter) ([2]; intensity distribution, 1 mg polymer/mL in PBS (10 mM phosphate, 137 mM NaCl)): ~130 nm and 124 ± 62 nm
- Z-pot [3]: -0.1 ± 4 mV

Substance: Cys-Tyr-Ahx-LinTT1 [LinTT1-Tyr-^124I-PS, 124I-radiolabeled PEG-PCL polymersomes functionalized with Cys-Tyr-Ahx-LinTT1 peptide]
- Accumulation in sentinel lymph node relative to Tyr-124I-PS [4, 9]: more than 2 fold
- Ratio of % ID/g in tumor to liver [4, 9]: 2.5 times
- Accumulation in tumors at 48 h ([4]; excised tumors, gamma counter, 48 h after i.v. injection, N=6, SEM): 26±3 % ID/g
- Increase in tumor accumulation by LinTT1 functionalization [4]: > 70%
- Increase in tumor accumulation by LinTT1 functionalization ([4]; listed as LinTT1-polymersomes): about 70%
- AUC in tumor, increase over non-targeted polymersomes ([5]; AUC of % ID/cc tumor versus time, 10 min to 48 h, N=5 mice): ~60%
- Tumor accumulation at 48 h ([5]; PET quantification, 48 h after i.v. injection, N=5 mice, SEM): 12±0.9 ID/cc
- Tumor accumulation at 24 h, increase over untargeted polymersomes ([5]; PET, 24 h after injection, N=5 mice): 67%
- Accumulation in tumor at 24 h ([5]; i.v., 1 mg polymer, tumors ~20 mm^3, 24 h after administration, PET quantification): up to 20 % ID/cc
- Tumor accumulation (no time stated) ([5]; i.v., PET quantification, discussion statement): > 20 % ID/cc
- Increase in binding to p32 beads compared to non-targeted polymersomes [6]: ~10 fold
- Binding to NRP-1 (NRP-1 [7]): did not bind
- Injected polymersomes (124I) remaining in the body after 48 h [8]: 45%
- Injected polymersomes (124I) remaining in the body at 24 h [8]: 67%
